Experimental data published in patent US20100234419A1, “SUBSTITUTED 3-AMINOISOXAZOLOPYRIDINES AS KCNQ2/3 MODULATORS” (GRUNENTHAL GMBH, priority 2009, published 2010).

Target: T1, KCNQ2/3 channels (Homo sapiens, UniProt O43525+O43526)
T1 construct: expressed in transfected cells; host or cells: CHO-K1 cells, kept under selection antibiotics
Assay: Fluorescence assay using a voltage sensitive dye (fluorimetry)
Assay type: cell-based
Details: for Emax at 10 µM: relative to retigabine = 100%, read-out: Fluorimetry % efficacy @ 10 μM (retigabine = 100%); for Emax at 10 µM / EC50: CHO-K1 cells expressing KCNQ2/3; for KCNQ2/3 stimulation at 10 μM: Table 4 comparison experiments; for activity towards the KCNQ2/3 receptor: nitrogen atom introduced into the phenyl ring of the benzoisoxazole structure
Experimental: […] CHO-K1 cells expressing KCNQ2/3 channels are cultivated adherently at 37° C., 5% CO2 and 95% humidity in cell culture bottles (e.g. 80 cm^2 TC flasks, Nunc) with DMEM-high glucose (Sigma Aldrich, D7777) including 10% FCS (PAN Biotech, e.g. 3302-P270521) or alternatively MEM Alpha Medium (1×, liquid, Invitrogen, #22571), 10% fetal calf serum (FCS) (Invitrogen, #10270-106, heat-inactivated) and the necessary selection antibiotics.
Before being sown out for the measurements, the cells are washed with a 1×DPBS buffer without Ca^2+/Mg^2+ (e.g. Invitrogen, #14190-094) and detached from the bottom of the culture vessel by means of Accutase (PAA Laboratories, #L11-007) (incubation with Accutase for 15 min at 37° C.). The cell count then present is determined using a CASY™ cell counter (TCC model, Scharfe System) in order subsequently to apply, depending on the density optimization for the individual cell line, 20,000-30,000 cells/well/100 μl of the described nutrient medium to 96-well measuring plates of the Corning™ CelIBIND™ type (Flat Clear Bottom Black Polystyrene Microplates, #3340). Incubation is then carried out for one hour at room temperature, without gassing or adjusting the humidity, followed by incubation for 24 hours at 37° C., 5% CO2 and 95% humidity.
The voltage-sensitive fluorescent dye from the Membrane Potential Assay Kit (Red™ Bulk format part R8123 for FLIPR, MDS Analytical Technologies™) is prepared by dissolving the contents of a vessel Membrane Potential Assay Kit Red Component A in 200 ml of extracellular buffer (ES buffer, 120 mM NaCl, 1 mM KCl, 10 mM HEPES, 2 mM CaCl2, 2 mM MgCl2, 10 mM glucose; pH 7.4). After removal of the nutrient medium, the cells are washed with 200 μl of ES buffer, then covered with a layer of 100 μl of the dye solution prepared above and incubated for 45 min at room temperature with the exclusion of light.
The fluorescence measurements are carried out with a BMG Labtech FLUOstar™ BMG Labtech NOVOstar™ or BMG Labtech POLARstar™ instrument (525 nm excitation, 560 nm emission, Bottom Read mode). After incubation of the dye, 50 μl of the test substances in the desired concentrations, or 50 μl of ES buffer for control purposes, are introduced into separate cavities of the measuring plate and incubated for 30 min at room temperature while being shielded from light. The fluorescence intensity of the dye is then measured for 5 min and the fluorescence value F1 of each well is thus determined at a given, constant time. […] of a 100 mM KCl solution (final concentration […]) are then added to each well. The change in fluorescence is subsequently measured until all the relevant measured values have been obtained (mainly 5-30 min). At a given time after KCl application, a fluorescence value F2 is determined, in this case at the time of the fluorescence peak.
For calculation, the fluorescence intensity F2 is compared with the fluorescence intensity F1, and the agonistic activity of the target compound on the potassium channel is determined therefrom. F2 and F1 are calculated as follows: […]
Calculations of EC50 values are carried out with the aid of ‘Prism v4.0’ software (GraphPad Software™).

SMILES | Emax at 10 µM [%] | KCNQ2/3 stimulation at 10 μM [%] | EC50 [µM] | activity towards the KCNQ2/3 receptor
FC(F)(F)Sc1ccc(CNc2noc3ccccc23)cc1 [E1, reference compound] | – | 75 | – | –
FC(F)(F)Sc1ccc(CNc2noc3cnccc23)cc1 [Exemplary compound 6, N-(4-(trifluoromethylthio)benzyl)-isoxazolo[5,4-c]pyridin-3-amine] | 65 | 65 | – | still present
Cc1cc(C)cc(C(C)Nc2noc3cccnc23)c1 (stereo not drawn) [Exemplary compound 10, N-(1-(3,5-dimethyl-phenyl)ethyl)-isoxazolo[4,5-b]pyridin-3-amine] | 27 | – | – | –
FC(F)(F)Sc1ccc(CNc2noc3ncccc23)cc1 [Exemplary compound 2, N-(4-(Trifluoromethylthio)benzyl)-isoxazolo[5,4-b]pyridin-3-amine] | 77 | 77 | 1.69 | still present
CC(Nc1noc2ncccc12)c1ccc(SC(F)(F)F)cc1 (stereo not drawn) [Exemplary compound 5, N-(1-(4-(trifluoromethylthio)phenyl)ethyl)-isoxazolo[5,4-b]pyridin-3-amine] | 97 | – | – | –
FC(F)(F)Sc1ccc(CNc2noc3ccncc23)cc1 [Exemplary compound 12, N-(4-(trifluoromethylthio)benzyl)-isoxazolo[4,5-c]pyridin-3-amine] | 39 | 39 | – | still present
FC(F)(F)Sc1ccc(CNc2noc3cccnc23)cc1 [Exemplary compound 9, N-(4-(trifluoromethylthio)benzyl)-isoxazolo[4,5-b]pyridin-3-amine] | 86 | 86 | – | still present
Cc1cc(C)cc(CNc2noc3ncccc23)c1 [Exemplary compound 3, N-(3,5-dimethyl-benzyl)isoxazolo[5,4-b]pyridin-3-amine] | 34 | – | – | –
Cc1cc(C)cc(CNc2noc3cnccc23)c1 [Exemplary compound 7, N-(3,5-dimethyl-benzyl)isoxazolo[5,4-c]pyridin-3-amine] | 29 | – | – | –
CC(Nc1noc2ncccc12)c1ccc(C(F)(F)F)cc1 (stereo not drawn) [Exemplary compound 1, N-(1-(4-(trifluoromethyl)phenyl)ethyl)-isoxazolo[5,4-b]pyridin-3-amine] | 43 | – | – | –
Cc1cc(C)cc(C(C)Nc2noc3ncccc23)c1 (stereo not drawn) [Exemplary compound 4, N-(1-(3,5-dimethyl-phenyl)ethyl)-isoxazolo[5,4-b]pyridin-3-amine] | 65 | – | – | –

Continued, values first:

Emax at 10 µM [%] | KCNQ2/3 stimulation at 10 μM [%] | EC50 [µM] | activity towards the KCNQ2/3 receptor | SMILES
39 | – | – | – | Cc1cc(C)cc(C(C)Nc2noc3c(C(F)(F)F)nccc23)c1 (stereo not drawn) [Exemplary compound 21, N-(1-(3,5-dimethyl-phenyl)ethyl)-7-trifluoromethyl-isoxazolo[5,4-c]pyridin-3-amine]
27 | – | – | – | FC(F)(F)Sc1ccc(CNc2noc3c(C(F)(F)F)nccc23)cc1 [Exemplary compound 23, N-(4-(trifluoromethylthio)benzyl)-7-trifluoromethyl-isoxazolo[5,4-c]pyridin-3-amine]
49 | – | 0.231 | – | Cc1cc(C)cc(C(C)Nc2noc3nc(C)ccc23)c1 (stereo not drawn) [Exemplary compound 22, N-(1-(3,5-dimethylphenyl)ethyl)-6-methyl-isoxazolo[5,4-b]pyridin-3-amine]
43 | – | – | – | Cc1cc(C)cc(C(C)Nc2noc3nc(C(F)(F)F)ccc23)c1 (stereo not drawn) [Exemplary compound 18, N-(1-(3,5-dimethylphenyl)ethyl)-6-(trifluoromethyl)isoxazolo[5,4-b]-pyridin-3-amine]
49 | – | 0.899 | – | CC(Nc1noc2ccncc12)c1ccc(SC(F)(F)F)cc1 (stereo not drawn) [Exemplary compound 17, N-(1-(4-(trifluoromethylthio)phenyl)ethyl)-isoxazolo[4,5-c]pyridin-3-amine]
15 | – | – | – | Cc1cc(C)cc(C(C)Nc2noc3ccncc23)c1 (stereo not drawn) [Exemplary compound 16, N-(1-(3,5-dimethyl-phenyl)ethyl)-isoxazolo[4,5-c]pyridin-3-amine]
38 | – | 0.411 | – | FC(F)(F)Sc1ccc(CNc2noc3nc4ccccc4cc23)cc1 [Exemplary compound 24, N-(4-(trifluoromethylthio)benzyl)-isoxazolo[5,4-b]quinolin-3-amine]
73 | – | – | – | Cc1cc(C)cc(C(C)Nc2noc3cnccc23)c1 (stereo not drawn) [Exemplary compound 15, N-(1-(3,5-dimethyl-phenyl)ethyl)-isoxazolo[5,4-c]pyridin-3-amine]
19 | – | – | – | FC(F)(F)Sc1ccc(CNc2noc3ccnc(Cl)c23)cc1 [Exemplary compound 25, 4-chloro-N-(4-(trifluoromethylthio)benzyl)-isoxazolo[4,5-c]pyridin-3-amine]
50 | – | – | – | CC(Nc1noc2cccnc12)c1ccc(SC(F)(F)F)cc1 (stereo not drawn) [Exemplary compound 13, N-(1-(4-(trifluoromethylthio)phenyl)-ethyl)isoxazolo[4,5-b]pyridin-3-amine]
49 | – | – | – | Cc1ccc2c(NCc3ccc(SC(F)(F)F)cc3)noc2n1 [Exemplary compound 20, 6-methyl-N-(4-(trifluoromethylthio)benzyl)-isoxazolo[5,4-b]pyridin-3-amine]
41 | – | – | – | FC(F)(F)Sc1ccc(CNc2noc3nc(C(F)(F)F)ccc23)cc1 [Exemplary compound 19, N-(4-(trifluoromethylthio)benzyl)-6-trifluoromethyl-isoxazolo[5,4-b]pyridin-3-amine]
78 | – | – | – | CC(Nc1noc2cnccc12)c1ccc(C(F)(F)F)cc1 (stereo not drawn) [Exemplary compound 14, N-(1-(4-(trifluoromethyl)phenyl)-ethyl)isoxazolo[5,4-c]pyridin-3-amine]
